Here are results for five compounds from patent US8980891B2, “Crystalline forms of certain 3-phenyl-pyrazole derivatives as modulators of the 5-HT2A serotonin receptor useful for the treatment of disorders related thereto” (Arena Pharmaceuticals, Inc., priority 2009, dated 2015).

The nature of data set [1]: slurry of the anhydrous form in water. It is filed as physicochemical. The settings on record: stirred at about 26-28° C. for ~3 days. The protocol:
A slurry of anhydrous 4-(2-(4-(3-methoxybenzamido)-2-(1-methyl-1H-pyrazol-5-yl)phenoxy)ethyl)morpholin-4-ium chloride in water was stirred at ambient/stir plate temperature (about 26-28° C.) for ˜3 days.

In data set [2] the test system is DOCA-salt induced hypertension. The conditions noted are these: rats; cited from earlier work.
Data set [3] deals with spontaneously hypertensive rats. The settings on record: cited from earlier work.
In a further data set the test system is heatstroke. The settings on record: in vivo; cited from earlier work.
A further data set relates to glaucoma patients. The conditions noted are these: cited from earlier work.
Another data set addresses 5-HT2A (Homo sapiens, UniProt P28223). The settings on record: cited from earlier work.
The subject of a further data set is JC virus. The conditions noted are these: cited from earlier work.
Data set [4] has as its system lower back pain, leg pain and numbness associated with sciatica. The conditions noted are these: humans; cited from earlier work.
The next data set relates to diabetic nephropathy. The settings on record: trial of 24 months of treatment; cited from earlier work.
Another data set deals with inflammatory pain. The conditions noted are these: rats, intrathecal or intraperitoneal administration; cited from earlier work.
For another data set, the system named is thermal induced pain. The conditions noted are these: rats, intraperitoneal administration; cited from earlier work.

Sequence of 5-HT2A (P28223 whole entry, species assumed): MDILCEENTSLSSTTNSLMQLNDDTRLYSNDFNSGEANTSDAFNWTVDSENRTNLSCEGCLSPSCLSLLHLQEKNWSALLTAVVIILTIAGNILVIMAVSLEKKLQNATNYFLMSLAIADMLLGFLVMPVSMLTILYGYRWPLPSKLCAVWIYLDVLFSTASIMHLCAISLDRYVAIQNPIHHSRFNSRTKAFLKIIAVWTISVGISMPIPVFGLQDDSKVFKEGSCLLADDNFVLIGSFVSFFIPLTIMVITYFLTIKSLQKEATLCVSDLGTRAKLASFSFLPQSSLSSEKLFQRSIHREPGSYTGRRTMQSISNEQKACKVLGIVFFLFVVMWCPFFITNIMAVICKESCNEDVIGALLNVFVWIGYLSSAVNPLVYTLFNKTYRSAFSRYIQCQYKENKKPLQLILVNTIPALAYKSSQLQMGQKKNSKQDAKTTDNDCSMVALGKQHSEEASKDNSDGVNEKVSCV

With `COc1cccc(C(=O)Nc2ccc(OCCN3CCOCC3)c(-c3ccnn3C)c2)c1.Cl` [Example 1, 4-(2-(4-(3-Methoxybenzamido)-2-(1-methyl-1H-pyrazol-5-yl)phenoxy)ethyl)morpholin-4-ium chloride], the “solid form recovered after slurry in water” value in data set [1] is listed as “anhydrous form was recovered”.

As to `CN1CCN2c3ccccc3Cc3ccccc3C2C1` (centres unmarked) [Mainserin], the DOCA-salt induced hypertension entry in data set [2] is reported as “prevent”.

Take `O=C(c1ccc(F)cc1)C1CCN(CCn2c(=O)[nH]c3ccccc3c2=O)CC1` [ketanserin]: the blood pressure entry in data set [3] is “stabilize”. The “protection against circulatory shocks, intracranial hypertension, and cerebral ischemia during heatstroke” value in the data set with heatstroke is “protect”. For the same compound, the IOP entry in the data set with glaucoma patients is given as “significantly lower”. In addition, the “activity at 5-HT2A” value on 5-HT2A was “inverse agonist activity”. Besides, the “JC virus infection of human glial cells” value with JC virus was “inhibited”.

Consider `Cc1nc2sccn2c(=O)c1CCN1CCC(=C(c2ccc(F)cc2)c2ccc(F)cc2)CC1` [ritanserin], for which the “activity at 5-HT2A” value at 5-HT2A is on record as “inverse agonist activity”. For the same compound, in the data set with JC virus, the “JC virus infection of human glial cells” value was “inhibited”.

As to `COc1cccc(CCc2ccccc2OCC(CN(C)C)OC(=O)CCC(=O)O)c1` (centres unmarked) [sarpogrelate], the “treatment for lower back pain, leg pain and numbness associated with sciatica brought on by lumbar disc herniation” value in data set [4] was “effective treatment”. Besides, the “urinary albumin excretion level” value in the data set with diabetic nephropathy is listed as “significantly reduced”. Further, the IOP result in the data set with glaucoma patients is on record as “significantly lower”. In addition, in the data set with inflammatory pain, the “analgesic effect on inflammatory pain” value is “significant analgesic effect”. In addition, the “analgesic effect on thermal induced pain” value in the data set on thermal induced pain was “significant analgesic effect”.
